{"source": "patent US7910593B2", "about": "“Water-soluble prodrugs” (Chugai Seiyaku Kabushiki Kaisha, priority 2004, dated 2011)", "key": {"[1]": {"assay": "Test Example 5: conversion of compound 2A into activated form in human sera", "type": "in vitro ADME", "conditions": "for compound 2A (measured values, %): Test Example 5, human sera, 50 μM, 37° C.", "experimental": "The percentages of compound 2A produced in Example 2 being converted into an activated form in sera of humans, rats, mice, monkeys, and dogs were determined. The activated form is in a rapid equilibrium between the lactone form and the carboxylate form, which were quantified separately.\nCompound 2A was incubated at 37° C. at a concentration of 50 μM in sera of humans, mice, rats, monkeys, and dogs. Incubation was terminated at a given time (0, 30, 60, 120, and 360 minutes), and the samples were analyzed by HPLC after deproteinization treatments.\n(§1) Conditions for the HPLC analysis are as follows: • HPLC conditions • Column: Develosil C30-UG-3, 3 μm, 35×4.6 mm I.D • Column Temperature: constant temperature at approximately 25° C. • Mobile phase: A: 10 mM phosphate buffer (pH4.7) • B: acetonitrile • /B (min): 90/10(0)→90/10(0.4)→40/60(6)→2/98(8)→90/10(9)→90/10(15) • Flow rate: 1.0 mL/min • Detection: photodiode array detector, detection wavelength 350 nm • Amount injected: 30 μL\nGenerally, camptothecins in solution are in a rapid equilibrium between a structure in which the carbonyl at position 3 forms a 6-membered cyclic ester with the oxygen at position 2, and its open-ring structure. The lactone form refers to the former condition and the carboxylate form refers to the latter condition."}, "[2]": {"assay": "Test Example 2: stability at various pH values in buffers", "type": "physicochemical", "conditions": "for Percent remaining: 25 μM, 25° C.", "experimental": "The stability of compound 2A at various pH values was determined. The present compound was placed in buffers of various pHs at a concentration of 25 μM. After incubation at 25° C. for 0, 3, and 6 hours, the compound was analyzed by HPLC.\nThe buffers used at each pH are shown below. • pH2.0: 50 mM HCl-KCl buffer • pH3.0: 50 mM citrate buffer • pH4.0: 50 mM citrate buffer • pH5.0: 50 mM succinate buffer • pH6.5: 50 mM phosphate buffer • pH7.4: 50 mM phosphate buffer\nas §1, with “for” for “for the”, “50×4.6” for “35×4.6”, “•” for “• /B”"}}, "data": [{"compound": "CCCCCN1C=Nc2cccc3nc4c(c1c23)Cn1c-4cc2c(c1=O)COC(=O)[C@@]2(CC)OC(=O)CN(C)C(=O)CN.Cl", "note": "[Compound 2A, (9S)-9-Ethyl-9-(glycyl-sarcosyloxy)-1-pentyl-1H,12H-pyrano[3″,4″:6′,7′]indolizino[1′,2′:6,5]pyrido[4,3,2-de]quinazoline-10,13(9H,15H)-dione hydrochloride]", "values": [{"measurement": "compound 2A (measured values, %)", "setting": "[1]; incubation 0 minutes", "value": 0, "unit": "%"}, {"measurement": "compound 2A (measured values, %)", "setting": "[1]; incubation 30 minutes", "value": 0, "unit": "%"}, {"measurement": "compound 2A (measured values, %)", "setting": "[1]; incubation 60 minutes", "value": 0, "unit": "%"}, {"measurement": "compound 2A (measured values, %)", "setting": "[1]; incubation 120 minutes", "value": 0, "unit": "%"}, {"measurement": "compound 2A (measured values, %)", "setting": "[1]; incubation 360 minutes", "value": 0, "unit": "%"}, {"measurement": "conversion to the lactone form (in words)", "setting": "[1]; human sera, Test Example 5", "value": "quickly converted to the lactone form"}, {"measurement": "Percent remaining", "setting": "[2]; pH 2.0, 50 mM HCl-KCl buffer, 0 hr", "value": 100, "unit": "%"}, {"measurement": "Percent remaining", "setting": "[2]; pH 2.0, 50 mM HCl-KCl buffer, 3 hr", "value": 101.6, "unit": "%"}, {"measurement": "Percent remaining", "setting": "[2]; pH 2.0, 50 mM HCl-KCl buffer, 6 hr", "value": 101.1, "unit": "%"}, {"measurement": "Percent remaining", "setting": "[2]; pH 3.0, 50 mM citrate buffer, 0 hr", "value": 100, "unit": "%"}, {"measurement": "Percent remaining", "setting": "[2]; pH 3.0, 50 mM citrate buffer, 3 hr", "value": 100.3, "unit": "%"}, {"measurement": "Percent remaining", "setting": "[2]; pH 3.0, 50 mM citrate buffer, 6 hr", "value": 101.1, "unit": "%"}, {"measurement": "Percent remaining", "setting": "[2]; pH 4.0, 50 mM citrate buffer, 0 hr", "value": 100, "unit": "%"}, {"measurement": "Percent remaining", "setting": "[2]; pH 4.0, 50 mM citrate buffer, 3 hr", "value": 98.2, "unit": "%"}, {"measurement": "Percent remaining", "setting": "[2]; pH 4.0, 50 mM citrate buffer, 6 hr", "value": 96.1, "unit": "%"}, {"measurement": "Percent remaining", "setting": "[2]; pH 5.0, 50 mM succinate buffer, 0 hr", "value": 100, "unit": "%"}, {"measurement": "Percent remaining", "setting": "[2]; pH 5.0, 50 mM succinate buffer, 3 hr", "value": 76.6, "unit": "%"}, {"measurement": "Percent remaining", "setting": "[2]; pH 5.0, 50 mM succinate buffer, 6 hr", "value": 58.7, "unit": "%"}, {"measurement": "Percent remaining", "setting": "[2]; pH 6.5, 50 mM phosphate buffer, 0 hr", "value": 100, "unit": "%"}, {"measurement": "Percent remaining", "setting": "[2]; pH 6.5, 50 mM phosphate buffer, 3 hr", "value": 0, "unit": "%"}, {"measurement": "Percent remaining", "setting": "[2]; pH 6.5, 50 mM phosphate buffer, 6 hr", "value": 0, "unit": "%"}, {"measurement": "Percent remaining", "setting": "[2]; pH 7.4, 50 mM phosphate buffer, 0 hr", "value": 100, "unit": "%"}, {"measurement": "Percent remaining", "setting": "[2]; pH 7.4, 50 mM phosphate buffer, 3 hr", "value": 0, "unit": "%"}, {"measurement": "Percent remaining", "setting": "[2]; pH 7.4, 50 mM phosphate buffer, 6 hr", "value": 0, "unit": "%"}, {"measurement": "stability (in words)", "setting": "[2]; up to pH3", "value": "stable"}]}]}
